The record followed here is ChEMBL document CHEMBL2074155, “Transport of antimony salts by Arabidopsis thaliana protoplasts over-expressing the human multidrug resistance-associated protein 1 (MRP1/ABCC1)” (FEBS Lett, 2006).

Series [1] concerns the target T1, Multidrug resistance-associated protein 1 (Homo sapiens, UniProt P33527). Put plainly: TP_TRANSPORTER: inhibition of Sb(III) accumulation in the presence of glibenclamid at a concentration of 10uM in MRP1-expressing MCP cells. The note with it: arabidopsis thaliana. The class given is functional, subcellular, Protoplasts.
For series [2], the target named is T1, Multidrug resistance-associated protein 1. Put plainly: TP_TRANSPORTER: cell accumulation in MRP1-expressing MCP cells. It counts as functional, Mesophyll cell protoplasts. As to conditions: arabidopsis thaliana.

T1 sequence (P33527 whole entry): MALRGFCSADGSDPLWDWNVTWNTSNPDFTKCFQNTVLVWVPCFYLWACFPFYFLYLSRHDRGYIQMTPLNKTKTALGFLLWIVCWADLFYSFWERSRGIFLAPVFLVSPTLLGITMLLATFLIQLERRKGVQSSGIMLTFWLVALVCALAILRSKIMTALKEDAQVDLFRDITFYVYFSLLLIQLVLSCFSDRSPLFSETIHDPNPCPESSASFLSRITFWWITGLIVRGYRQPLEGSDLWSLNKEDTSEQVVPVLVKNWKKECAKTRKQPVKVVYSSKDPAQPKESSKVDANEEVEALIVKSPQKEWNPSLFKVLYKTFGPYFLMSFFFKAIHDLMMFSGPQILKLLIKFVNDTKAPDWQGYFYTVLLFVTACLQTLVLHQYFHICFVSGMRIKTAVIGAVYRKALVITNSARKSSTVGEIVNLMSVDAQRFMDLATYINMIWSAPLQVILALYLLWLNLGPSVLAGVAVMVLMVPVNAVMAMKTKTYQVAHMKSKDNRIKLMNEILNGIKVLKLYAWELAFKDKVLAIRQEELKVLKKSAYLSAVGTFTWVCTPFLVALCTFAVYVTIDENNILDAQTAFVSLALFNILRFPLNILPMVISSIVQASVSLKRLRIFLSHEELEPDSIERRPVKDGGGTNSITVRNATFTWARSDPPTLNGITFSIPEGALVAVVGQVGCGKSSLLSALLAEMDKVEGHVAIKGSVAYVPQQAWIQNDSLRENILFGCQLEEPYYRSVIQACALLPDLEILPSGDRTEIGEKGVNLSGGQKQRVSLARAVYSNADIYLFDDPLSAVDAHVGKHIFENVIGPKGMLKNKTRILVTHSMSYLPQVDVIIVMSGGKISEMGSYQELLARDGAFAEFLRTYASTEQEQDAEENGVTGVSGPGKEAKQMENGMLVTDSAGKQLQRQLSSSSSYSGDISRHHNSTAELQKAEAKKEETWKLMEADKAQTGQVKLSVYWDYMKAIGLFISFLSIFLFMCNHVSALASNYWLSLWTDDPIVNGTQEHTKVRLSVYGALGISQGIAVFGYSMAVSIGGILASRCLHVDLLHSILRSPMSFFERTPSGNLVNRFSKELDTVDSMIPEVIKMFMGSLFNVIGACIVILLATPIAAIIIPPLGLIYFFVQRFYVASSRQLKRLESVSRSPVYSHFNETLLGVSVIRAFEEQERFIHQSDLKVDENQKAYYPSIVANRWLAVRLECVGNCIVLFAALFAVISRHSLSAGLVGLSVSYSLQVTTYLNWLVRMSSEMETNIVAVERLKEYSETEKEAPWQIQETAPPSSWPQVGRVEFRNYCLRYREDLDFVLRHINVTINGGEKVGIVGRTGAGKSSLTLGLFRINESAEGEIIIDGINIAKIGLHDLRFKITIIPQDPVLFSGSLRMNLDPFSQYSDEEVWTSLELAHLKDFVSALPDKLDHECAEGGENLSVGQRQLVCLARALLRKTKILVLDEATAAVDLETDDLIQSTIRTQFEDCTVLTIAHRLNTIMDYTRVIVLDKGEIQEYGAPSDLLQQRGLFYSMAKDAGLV

With `COc1ccc(Cl)cc1C(=O)NCCc1ccc(S(=O)(=O)NC(=O)NC2CCCCC2)cc1` [GLYBURIDE], in series [1], the Activity result was “inhibitor [+]”.
As to ANTIMONY (III) ION, the Activity entry in series [2] was “substrate [+]”.
